# Tested on: anaesthetized rats
# Experiment: Blood pressure and heart rate after slow intravenous administration in anaesthetized rats
# Type: in vivo
# Conditions: for HR (beats/min) / MAP (mmHg): mean ± SEM, n=6; for maximal change in HR / maximal change in MAP: percent change from baseline
# Description: The effects of 3-(1H-imidazol-4-ylmethyl)-indan-5-ol on blood pressure and heart rate after slow intravenous administration were studied in anaesthetized rats. Dexmedetomidine (Orion Corporation Orion Pharma, Finland), a specific α2-adrenoceptor agonist was studied as a reference compound.
# Male Spraque-Dawley rats (B&K, Sweden), weighing 290-400 g, were anaesthetized with sodium pentobarbital (Mebunat® 60 mg/ml) 75 mg/kg i.p. The left femoral vein was cannulated (PE-50) for slow drug injections. The left femoral artery was cannulated (PE-60) and the mean arterial blood pressure (MAP) and heart rate (HR) were recorded continuously via a Micro MP-15 transducer connected to a Grass Model 7D Polygraph. Arterial pressure was sampled at a rate 150 samples/second and recorded on a Pinus PC computer using the software program AcqKnowledge version 3.5.3 and a MP100A data acquisition unit for analog/digital conversion (BIOPAC Systems, Inc.). Pulse waves of the blood pressure were used for displaying heart rate continuously. The body temperature (rectal) was kept constant at 37±0.5° C. by warming with a lamp above the animal's chest. Only rats with MAP of 73 mmHg or higher were used for the tests. After a stabilizing period of 10-20 min, 3-(1H-imidazol-4-ylmethyl)-indan-5-ol (1 and 3 μg/kg, as hydrochloride) or dexmedetomidine (3 and 10 μg/kg, as hydrochlorides) dose was given as slow intravenous injection (during 5 min) by an infusion pump (Perfusor® ED 2, B. Braun). The total injection volume was adjusted to 1 ml in each experimental group.
# [1] = dose 3 μg/kg slow i.v. (during 5 min), time 0 min
# [2] = dose 3 μg/kg slow i.v. (during 5 min), time 3 min
# [3] = dose 3 μg/kg slow i.v. (during 5 min), time 5 min
# [4] = dose 3 μg/kg slow i.v. (during 5 min), time 10 min
# [5] = dose 3 μg/kg slow i.v. (during 5 min), time 20 min
# [6] = dose 3 μg/kg slow i.v. (during 5 min), time 30 min
# [7] = dose 10 μg/kg slow i.v. (during 5 min), time 0 min
# [8] = dose 10 μg/kg slow i.v. (during 5 min), time 2 min
# [9] = dose 10 μg/kg slow i.v. (during 5 min), time 5 min
# [10] = dose 10 μg/kg slow i.v. (during 5 min), time 10 min
# [11] = dose 10 μg/kg slow i.v. (during 5 min), time 20 min
# [12] = dose 10 μg/kg slow i.v. (during 5 min), time 30 min
# [13] = slow intravenous administration of 3 and 10 μg/kg
# [14] = dose 1 μg/kg slow i.v. (during 5 min), time 0 min
# [15] = dose 1 μg/kg slow i.v. (during 5 min), time 3 min
# [16] = dose 1 μg/kg slow i.v. (during 5 min), time 5 min
# [17] = dose 1 μg/kg slow i.v. (during 5 min), time 10 min
# [18] = dose 1 μg/kg slow i.v. (during 5 min), time 20 min
# [19] = dose 1 μg/kg slow i.v. (during 5 min), time 30 min
# [20] = slow (during 5 minutes) i.v. dosing of 1 and 3 μg/kg
smiles,measurement,setting,value
"Cc1cccc([C@H](C)c2cnc[nH]2)c1C [Dexmedetomidine, dexmedetomidine]",HR (beats/min),[1],348 ± 12 beats/min
same,MAP (mmHg),[1],89 ± 5 mmHg
same,HR (beats/min),[2],310 ± 6 beats/min
same,MAP (mmHg),[2],86 ± 5 mmHg
same,HR (beats/min),[3],310 ± 5 beats/min
same,MAP (mmHg),[3],79 ± 7 mmHg
same,HR (beats/min),[4],308 ± 4 beats/min
same,MAP (mmHg),[4],61 ± 4 mmHg
same,HR (beats/min),[5],309 ± 5 beats/min
same,MAP (mmHg),[5],65 ± 2 mmHg
same,HR (beats/min),[6],309 ± 5 beats/min
same,MAP (mmHg),[6],67 ± 2 mmHg
same,HR (beats/min),[7],383 ± 11 beats/min
same,MAP (mmHg),[7],92 ± 2 mmHg
same,HR (beats/min),[8],308 ± 5 beats/min
same,MAP (mmHg),[8],94 ± 4 mmHg
same,HR (beats/min),[9],309 ± 3 beats/min
same,MAP (mmHg),[9],75 ± 6 mmHg
same,HR (beats/min),[10],303 ± 3 beats/min
same,MAP (mmHg),[10],59 ± 3 mmHg
same,HR (beats/min),[11],296 ± 7 beats/min
same,MAP (mmHg),[11],68 ± 2 mmHg
same,HR (beats/min),[12],297 ± 6 beats/min
same,MAP (mmHg),[12],73 ± 2 mmHg
same,maximal change in HR,[13],−21%
same,maximal change in MAP,[13],−37%
"Oc1ccc2c(c1)C(Cc1c[nH]cn1)CC2 (stereo not shown) [MPV-2426 Al, 3-(1H-imidazol-4-ylmethyl)-indan-5-ol]",HR (beats/min),[14],373 ± 8 beats/min
same,MAP (mmHg),[14],97 ± 4 mmHg
same,HR (beats/min),[15],324 ± 9 beats/min
same,MAP (mmHg),[15],114 ± 3 mmHg
same,HR (beats/min),[16],321 ± 9 beats/min
same,MAP (mmHg),[16],112 ± 3 mmHg
same,HR (beats/min),[17],327 ± 7 beats/min
same,MAP (mmHg),[17],83 ± 4 mmHg
same,HR (beats/min),[18],319 ± 9 beats/min
same,MAP (mmHg),[18],84 ± 4 mmHg
same,HR (beats/min),[19],317 ± 9 beats/min
same,MAP (mmHg),[19],80 ± 3 mmHg
same,HR (beats/min),[1],366 ± 11 beats/min
same,MAP (mmHg),[1],94 ± 5 mmHg
same,HR (beats/min),[2],309 ± 7 beats/min
same,MAP (mmHg),[2],123 ± 9 mmHg
same,HR (beats/min),[3],311 ± 4 beats/min
same,MAP (mmHg),[3],117 ± 12 mmHg
same,HR (beats/min),[4],321 ± 4 beats/min
same,MAP (mmHg),[4],88 ± 4 mmHg
same,HR (beats/min),[5],321 ± 6 beats/min
same,MAP (mmHg),[5],83 ± 5 mmHg
same,HR (beats/min),[6],305 ± 6 beats/min
same,MAP (mmHg),[6],77 ± 3 mmHg
same,maximal change in HR,[20],−19%
same,maximal change in MAP,[20],+31%

# — patent publication US8470862B2, “Treatment or prevention of hypotension and shock” (Recro Pharma, Inc., priority 1999, dated 2013)
